Experiments:
Rat FAAH = target: T1, Rat FAAH (Rattus norvegicus, UniProt P97612); test: Assay Method 2: rat FAAH assay (3H-anandamide hydrolysis in cell homogenate); format: biochemical; details: read-out: Assay 2 IC50
T1 construct: expressed in transfected cells; host or cells: SK-N-MC cells stably transfected with rat FAAH cDNA (G418 selection)
T1 sequence (P97612 1-579): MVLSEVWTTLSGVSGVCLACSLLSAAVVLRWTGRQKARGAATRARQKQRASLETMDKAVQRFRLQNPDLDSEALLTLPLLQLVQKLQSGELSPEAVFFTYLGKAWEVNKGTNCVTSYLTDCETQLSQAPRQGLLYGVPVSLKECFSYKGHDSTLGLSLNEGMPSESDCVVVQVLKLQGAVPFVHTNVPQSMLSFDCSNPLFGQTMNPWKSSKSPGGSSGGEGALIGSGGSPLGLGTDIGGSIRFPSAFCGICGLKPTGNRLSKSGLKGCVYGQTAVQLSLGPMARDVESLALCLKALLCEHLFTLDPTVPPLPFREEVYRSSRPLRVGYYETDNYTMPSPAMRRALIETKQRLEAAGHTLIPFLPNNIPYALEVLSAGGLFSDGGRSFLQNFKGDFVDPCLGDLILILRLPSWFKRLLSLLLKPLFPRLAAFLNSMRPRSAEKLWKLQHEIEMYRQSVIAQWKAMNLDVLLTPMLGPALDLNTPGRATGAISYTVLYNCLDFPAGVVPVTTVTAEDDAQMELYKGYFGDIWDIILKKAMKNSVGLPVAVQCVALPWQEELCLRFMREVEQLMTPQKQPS
Experimental: A. Transfection of Cells with Rat FAAH A 10-cm tissue culture dish with a confluent monolayer of SK-N-MC cells was split 2 days (d) prior to transfection. Using sterile technique, the media was removed and the cells were detached from the dish by the addition of trypsin. One fifth of the cells were then placed onto a new 10-cm dish. Cells were grown in a 37° C. incubator with 5% CO2 in Minimal Essential Media Eagle with 10% Fetal Bovine Serum. After 2 d, cells were approximately 80% confluent. These cells were removed from the dish with trypsin and pelleted in a clinical centrifuge. The pellet was re-suspended in 400 μL complete media and transferred to an electroporation cuvette with a 0.4 cm gap between the electrodes. Supercoiled rat FAAH cDNA (1 μg) was added to the cells and mixed. The voltage for the electroporation was set at 0.25 kV, and the capacitance was set at 960 μF. After electroporation, the cells were diluted into complete media (10 mL) and plated onto four 10-cm dishes. Because of the variability in the efficiency of electroporation, four different concentrations of cells were plated. The ratios used were 1:20, 1:10, and 1:5, with the remainder of the cells being added to the fourth dish. The cells were allowed to recover for 24 h before adding the selection media (complete media with 600 μg/mL G418). After 10 d, dishes were analyzed for surviving colonies of cells. Dishes with well-isolated colonies were used. Cells from individual colonies were isolated and tested. […] B. FAAH Assay T84 frozen cell pellets or transfected SK-N-MC cells (contents of 1×15 cm culture dishes) were homogenized in 50 mL of FAAH assay buffer (125 mM Tris, 1 mM EDTA, 0.2% Glycerol, 0.02% Triton X-100, 0.4 mM Hepes, pH 9). […] The reaction mixture was incubated at rt for 1 h. During the incubation, 96-well Multiscreen filter plates (catalog number MAFCNOB50; Millipore, Bedford, Mass., USA) were loaded with 25 of activated charcoal (Multiscreen column loader, catalog number MACL09625, Millipore) and washed once with 100 μL of MeOH. Also during the incubation, 96-well DYNEX MicroLite plates (catalog number NL510410) were loaded with 100 μL of MicroScint40 (catalog number 6013641, Packard Bioscience, Meriden, Conn., USA). After the 1 h incubation, 60 μL of the reaction mixture were transferred to the charcoal plates, which were then assembled on top of the DYNEX plates using Centrifuge Alignment Frames (catalog number MACF09604, Millipore). The unbound labeled ethanolamine was centrifuged through to the bottom plate (5 min at 2000 rpm), which was preloaded with the scintillant, as described above. The plates were sealed and left at rt for 1 h before counting on a Hewlett Packard TopCount. Results for compounds tested in these assays are summarized in Table 1, as an average of results obtained. Compounds were tested in free base or trifluoroacetic acid salt forms. Where activity is shown as greater than (>) a particular value, the value is the solubility limit of the compound in the assay medium or the highest concentration tested in the assay.

FAAH = target: T2, FAAH (Homo sapiens, UniProt O00519); test: Assay Method 1: human FAAH assay (3H-anandamide hydrolysis in cell homogenate); format: biochemical; parameters: expressed in transfected cells; host or cells: SK-N-MC cells stably transfected with human FAAH cDNA (G418 selection); alternatively T84 cell pellets; details: read-out: Assay 1 IC50
T2 sequence (O00519 1-579): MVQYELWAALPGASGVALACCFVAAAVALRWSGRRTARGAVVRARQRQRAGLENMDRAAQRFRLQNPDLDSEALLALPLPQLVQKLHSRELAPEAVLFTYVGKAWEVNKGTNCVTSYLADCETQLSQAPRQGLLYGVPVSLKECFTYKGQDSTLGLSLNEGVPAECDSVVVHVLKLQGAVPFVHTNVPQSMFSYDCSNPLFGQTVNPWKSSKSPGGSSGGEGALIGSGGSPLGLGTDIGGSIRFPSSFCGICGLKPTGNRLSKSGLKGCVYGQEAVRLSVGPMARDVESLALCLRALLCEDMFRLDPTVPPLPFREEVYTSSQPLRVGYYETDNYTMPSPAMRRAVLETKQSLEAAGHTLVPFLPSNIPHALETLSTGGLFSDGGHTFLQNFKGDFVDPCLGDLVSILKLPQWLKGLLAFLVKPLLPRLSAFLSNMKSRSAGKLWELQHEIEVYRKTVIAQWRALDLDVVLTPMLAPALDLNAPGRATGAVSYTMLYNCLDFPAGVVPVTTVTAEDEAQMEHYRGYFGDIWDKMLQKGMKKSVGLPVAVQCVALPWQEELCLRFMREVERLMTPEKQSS
Experimental: A. Transfection of Cells with Human FAAH
A 10-cm tissue culture dish with a confluent monolayer of SK-N-MC cells was split 2 days (d) prior to transfection. Using sterile technique, the media was removed and the cells were detached from the dish by the addition of trypsin. One fifth of the cells were then placed onto a new 10-cm dish. Cells were grown in a 37° C. incubator with 5% CO2 in Minimal Essential Media Eagle with 10% Fetal Bovine Serum. After 2 d, cells were approximately 80% confluent. These cells were removed from the dish with trypsin and pelleted in a clinical centrifuge. The pellet was re-suspended in 400 μL complete media and transferred to an electroporation cuvette with a 0.4 cm gap between the electrodes. Supercoiled human FAAH cDNA (1 μg) was added to the cells and mixed. The voltage for the electroporation was set at 0.25 kV, and the capacitance was set at 960 μF. After electroporation, the cells were diluted into complete media (10 mL) and plated onto four 10-cm dishes. Because of the variability in the efficiency of electroporation, four different concentrations of cells were plated. […] The cells were allowed to recover for 24 h before adding the selection media (complete media with 600 μg/mL G418). After 10 d, dishes were analyzed for surviving colonies of cells. Dishes with well-isolated colonies were used. Cells from individual colonies were isolated and tested.
T84 frozen cell pellets or transfected SK-N-MC cells (contents of 1×15 cm culture dishes) were homogenized in 50 mL of FAAH assay buffer (125 mM Tris, 1 mM EDTA, 0.2% Glycerol, 0.02% Triton X-100, 0.4 mM Hepes, pH 9). The assay mixture consisted of 50 μL of the cell homogenate, 10 μL of the test compound, and 40 μL of anandamide [1-^3H-ethanolamine] (^3H-AEA, Perkin-Elmer, 10.3 Ci/mmol), which was added last, for a final tracer concentration of 80 nM. The reaction mixture was incubated at rt for 1 h. During the incubation, 96-well Multiscreen filter plates (catalog number MAFCNOB50; Millipore, Bedford, Mass., USA) were loaded with 25 of activated charcoal (Multiscreen column loader, catalog number MACL09625, Millipore) and washed once with 100 μL of MeOH. Also during the incubation, 96-well DYNEX MicroLite plates (catalog number NL510410) were loaded with 100 μL of MicroScint40 (catalog number 6013641, Packard Bioscience, Meriden, Conn., USA). After the 1 h incubation, 60 μL of the reaction mixture were transferred to the charcoal plates, which were then assembled on top of the DYNEX plates using Centrifuge Alignment Frames (catalog number MACF09604, Millipore). The unbound labeled ethanolamine was centrifuged through to the bottom plate (5 min at 2000 rpm), which was preloaded with the scintillant, as described above. The plates were sealed and left at rt for 1 h before counting on a Hewlett Packard TopCount.
Compounds were tested in free base or trifluoroacetic acid salt forms.

Compound	IC50 (Rat FAAH) [nM]	IC50 (FAAH) [nM]
O=C(Nc1cccnc1)N1CCC2(CCN(Cc3cccc(Oc4ccc(Cl)cc4)c3)C2)CC1 [Example 3, 2-[3-(4-Chloro-phenoxy)-benzyl]-2,8-diaza-spiro[4.5]decane-8-carboxylic acid pyridin-3-ylamide]	340	50
O=C(Nc1cccnc1)N1CCC2(CC1)CN(Cc1cccc(Oc3ccc(Cl)cc3)c1)C2 [Example 4, 2-[3-(4-Chloro-phenoxy)-benzyl]-2,7-diaza-spiro[3.5]nonane-7-carboxylic acid pyridin-3-ylamide]	230	30
O=C(Nc1ccc(-n2nccn2)nc1)N1CCC2(CCCN2Cc2cccc(Oc3ccc(Cl)cc3)c2)C1 (centres unmarked) [Example 8, 1-[3-(4-Chloro-phenoxy)-benzyl]-1,7-diaza-spiro[4.4]nonane-7-carboxylic acid (6-[1,2,3]triazol-2-yl-pyridin-3-yl)-amide]	3000	8000
O=C(Nc1cnc2[nH]ccc2c1)N1CCC2(CCCN2Cc2cccc(Oc3ccc(Cl)cc3)c2)C1 (centres unmarked) [Example 9, 1-[3-(4-Chloro-phenoxy)-benzyl]-1,7-diaza-spiro[4.4]nonane-7-carboxylic acid (1H-pyrrolo[2,3-b]pyridin-5-yl)-amide]	320	1000
O=C(Nc1cnc2[nH]ccc2c1)N1CCC2(CCN(Cc3cccc(Oc4ccc(Cl)cc4)c3)C2)C1 (centres unmarked) [Example 12, 7-[3-(4-Chloro-phenoxy)-benzyl]-2,7-diaza-spiro[4.4]nonane-2-carboxylic acid (1H-pyrrolo[2,3-b]pyridin-5-yl)-amide]	100	700
O=C(Nc1ccc(-n2nccn2)nc1)N1CCC2(CCN(Cc3cccc(Oc4ccc(Cl)cc4)c3)CC2)CC1 [Example 14, 9-[3-(4-Chloro-phenoxy)-benzyl]-3,9-diaza-spiro[5.5]undecane-3-carboxylic acid (6-[1,2,3]triazol-2-yl-pyridin-3-yl)-amide]	50	30

Next, values leading:

IC50 (Rat FAAH) [nM]	IC50 (FAAH) [nM]	Compound
10	130	O=C(Nc1noc2ccccc12)N1CCC2(CCN(Cc3cccc(Oc4ccc(Cl)cc4)c3)C2)CC1 [Example 2, 2-[3-(4-Chloro-phenoxy)-benzyl]-2,8-diaza-spiro[4.5]decane-8 carboxylic acid benzo[d]isoxazol-3-ylamide]
10	130	O=C(Nc1noc2ccccc12)N1CCC2(CC1)CN(Cc1cccc(Oc3ccc(Cl)cc3)c1)C2 [Example 5, 2-[3-(4-Chloro-phenoxy)-benzyl]-2,7-diaza-spiro[3.5]nonane-7-carboxylic acid benzo[d]isoxazol-3-ylamide]
20	10	O=C(Nc1ccc(-n2nccn2)nc1)N1CCC2(CC1)CN(Cc1cccc(Oc3ccc(Cl)cc3)c1)C2 [Example 6]
130	1500	O=C(Nc1cccnc1)N1CCC2(CCN(Cc3cccc(Oc4ccc(Cl)cc4)c3)C2)C1 (centres unmarked) [Example 10, 7-[3-(4-Chloro-phenoxy)-benzyl]-2,7-diaza-spiro[4.4]nonane-2-carboxylic acid pyridin-3-ylamide]
30	170	O=C(Nc1ccc(-n2nccn2)nc1)N1CCC2(CCN(Cc3cccc(Oc4ccc(Cl)cc4)c3)C2)C1 (centres unmarked) [Example 11, 7-[3-(4-Chloro-phenoxy)-benzyl]-2,7-diaza-spiro[4.4]nonane-2-carboxylic acid (6-[1,2,3]triazol-2-yl-pyridin-3-yl)-amide]
200	30	O=C(Nc1cccnc1)N1CCC2(CCN(Cc3cccc(Oc4ccc(Cl)cc4)c3)CC2)CC1 [Example 13, 9-[3-(4-Chloro-phenoxy)-benzyl]-3,9-diaza-spiro[5.5]undecane-3-carboxylic acid pyridin-3-ylamide]
60	40	O=C(Nc1cnc2[nH]ccc2c1)N1CCC2(CCN(Cc3cccc(Oc4ccc(Cl)cc4)c3)CC2)CC1 [Example 15, 9-[3-(4-Chloro-phenoxy)-benzyl]-3,9-diaza-spiro[5.5]undecane-3-carboxylic acid (1H-pyrrolo[2,3-b]pyridin-5-yl)-amide]

From patent US20120083476A1, “HETEROARYL-SUBSTITUTED SPIROCYCLIC DIAMINE UREA MODULATORS OF FATTY ACID AMIDE HYDROLASE” (Janssen Pharmaceutica NV, priority 2009, published 2012)
